One compound from US20130177991A1, “A[…] EMISSION LUMINOGEN-BASED URINARY PROTEIN DETECTION DEVICE FOR […] HEALTH” (NANO AND ADVANCED MATERIALS INSTITUTE LIMITED, priority 2012, published 2013) can be followed below.

Series [1] addresses T1, HSA (Homo sapiens, UniProt P02768).
T1 construct: purchased Sigma-Aldrich
Kind of series: Fluorescence turn-on assay of HSA in PBS buffer. The format is binding. How it is done: FIG. 2: (A) Fluorescent (FL) spectra of compound 1, SATPE in phosphate buffered saline (PBS) buffer containing different concentrations of HSA; (B) Change in the FL intensity at 475 nm with HSA concentration; Io=FL intensity in the absence of HSA. Inset: linear region of the binding isotherm of SATPE to HSA. [SATPE]=5 μM; λex=350 nm.
(§1) In another embodiment, Compound 1 is AIE-active as it emits faintly in PBS buffer but gives strong light upon aggregate formation. Its solution in PBS buffer is weakly luminescent at 390 nm in the absence of HSA (FIG. 2). […] The higher the HSA content, the stronger is the light emission. The detection limit can be squeezed to as low as 1 nM. In order to examine the feasibility of protein assay in body fluids, artificial urine is utilized as medium in the protein assay.

In series [2] the target is T1, HSA. The series is described as follows: Selectivity of fluorescence response to HSA against other proteins and DNAs. The format is binding. The note with it: FIG. 3B, [SATPE]=5 μM, [protein]=100 μg/mL. How it is done:
FIG. 3: (A) Binding isotherm of HSA to SATPE in artificial urine and PBS buffer; (B) Dependence of the FL intensity of SATPE at 475 nm on different proteins in artificial urine and PBS buffer. [SATPE]=5 μM; [protein]=100 μg/mL; λex=350 nm.
as §1

T1 sequence (P02768 25-609): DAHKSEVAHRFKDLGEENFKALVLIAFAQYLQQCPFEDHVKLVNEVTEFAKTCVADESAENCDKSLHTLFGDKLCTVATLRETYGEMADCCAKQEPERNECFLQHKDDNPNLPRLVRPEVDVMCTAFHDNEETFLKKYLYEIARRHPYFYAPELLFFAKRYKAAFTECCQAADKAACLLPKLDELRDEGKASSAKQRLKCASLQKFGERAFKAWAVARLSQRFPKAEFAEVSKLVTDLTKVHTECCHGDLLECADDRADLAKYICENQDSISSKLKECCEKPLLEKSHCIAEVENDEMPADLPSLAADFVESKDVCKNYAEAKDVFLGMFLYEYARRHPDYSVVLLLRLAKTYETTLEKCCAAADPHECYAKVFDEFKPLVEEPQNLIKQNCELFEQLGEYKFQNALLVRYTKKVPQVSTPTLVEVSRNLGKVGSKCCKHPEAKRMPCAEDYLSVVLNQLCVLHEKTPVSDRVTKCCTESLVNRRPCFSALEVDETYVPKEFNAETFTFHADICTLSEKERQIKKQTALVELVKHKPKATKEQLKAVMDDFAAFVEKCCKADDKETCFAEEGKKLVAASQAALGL

For the compound `O=S(=O)([O-])CCCOc1ccc(C(=C(c2ccccc2)c2ccc(OCCCS(=O)(=O)[O-])cc2)c2ccccc2)cc1.[Na+].[Na+]` [Compound 1], in series [1] (emission at 475 nm), the “detection limit for HSA” value was 1 nM. For the same compound, in series [1] (weakly luminescent at 390 nm in the absence of HSA), the “light emission upon addition of HSA” value is “emit intensely at 475 nm”. Further, the “response to other human proteins and DNAs” value in series [2] is given as “no significant response”. Further, in series [2] (artificial urine and PBS buffer), the “selectivity to HSA” value is “excellent selectivity to HSA”.
